Key:
Chikungunya virus [1] = test: Antiviral activity against CHIKV 122508 infected in […] BHK-21 cells assessed as reduction in viral titer at MOI of 1 measured after 24 hpi by viral plaque assay; assay type: functional, organism-based; settings: Chikungunya virus, 122508, BHK-21
[2] = Cytotoxicity against human HeLa CCL2 cells assessed as reduction in cell viability measured after 24 hrs by Alamar blue assay; assay type: functional
[3] = Selectivity index, ratio of CC50 for cytotoxicity against human HeLa CCL2 cells to EC50 for antiviral activity against CHIKV 122508 infected in human HeLa CCL2 cells; assay type: toxicity, cell-based; settings: read-out: Ratio CC50/EC50
Chikungunya virus [4] = test: Antiviral activity against CHIKV 122508 infected in human HeLa CCL2 cells assessed as inhibition of viral replication at MOI of 1 at 100 uM incubated for 24 hpi by viral plaque assay; assay type: functional; parameters: unit not given here; settings: time 24 hrs
Chikungunya virus [5] = test: Antiviral activity against CHIKV 122508 infected in human HeLa CCL2 cells assessed as inhibition of viral replication at MOI of 1 at 80 uM incubated for 24 hpi by viral plaque assay; assay type: functional; parameters: unit not given here; settings: time 24 hrs
Chikungunya virus [6] = test: Antiviral activity against CHIKV 122508 infected in human HeLa CCL2 cells assessed as inhibition of viral replication at MOI of 1 at 10 uM incubated for 24 hpi by viral plaque assay; assay type: functional; parameters: unit not given here; settings: time 24 hrs

Compound	EC50 (Chikungunya virus [1]) [µM]	CC50 [2] [µM]	selectivity ratio [3]	Activity (Chikungunya virus [4])	Activity (Chikungunya virus [5])	Activity (Chikungunya virus [6])
C=C1CC[C@H]2C(C)(C)CCC[C@]2(C)[C@H]1C/C=C1\C(=O)Nc2c(C)cccc21	0.15	> 100	> 667	2.8	–	–
CC1=CC[C@H]2C(C)(C)CCC[C@]2(C)[C@H]1C/C=C1\C(=O)Nc2ccccc21	5.69	17	3	–	–	–
C=C1CC[C@@H]2[C@](C)(COC(C)=O)[C@H](OC(C)=O)CC[C@@]2(C)[C@@H]1C/C=C1\C(=O)Nc2ccccc21	8.3	> 100	> 12	–	–	–
C=C1CC[C@H]2C(C)(C)CCC[C@]2(C)[C@H]1C/C=C1\C(=O)Nc2cccc(Cl)c21	5.4	37.2	6.8	–	–	–
C=C1CC[C@H]2C(C)(C)CCC[C@]2(C)[C@H]1C/C=C1/C(=O)Nc2c(C)cccc21	0.62	142	230	–	1.3	–
C=C1CC[C@H]2C(C)(C)CCC[C@]2(C)[C@H]1C/C=C1/C(=O)Nc2c(Br)cccc21	1.27	> 100	> 79	–	–	–
C=C1CC[C@H]2C(C)(C)CCC[C@]2(C)[C@H]1C/C=C1/C(=O)Nc2cc(C(F)(F)F)ccc21	7.41	77.2	10	–	–	–
C=C1CC[C@@H]2[C@](C)(CO)[C@H](O)CC[C@@]2(C)[C@@H]1C/C=C1\C(=O)N(C)c2ccccc21	–	> 100	–	–	–	–
C=C1CC[C@H]2C(C)(C)CCC[C@]2(C)[C@H]1C/C=C1\C(=O)Nc2c(Cl)cc(F)cc21	0.07	> 100	> 1350	2.6	–	–
C=C1[C@H](O)C[C@H]2C(C)(C)CCC[C@]2(C)[C@H]1C/C=C1/C(=O)Nc2ccccc21	1.29	15	12	–	–	–
C=C1CC[C@H]2C(C)(C)CCC[C@]2(C)[C@H]1C/C=C1\C(=O)Nc2ccccc21	7.23	> 100	> 14	–	–	–
C=C1CC[C@H]2C(C)(C)CCC[C@]2(C)[C@H]1C/C=C1\C(=O)Nc2cc(Br)ccc21	7.5	19.6	2.6	–	–	–
C=C1CC[C@H]2C(C)(C)CCC[C@]2(C)[C@H]1C/C=C1/C(=O)Nc2c(OC)cccc21	0.15	90.2	602	–	2.6	–
C=C1CC[C@@H]2[C@](C)(CO)[C@H](O)CC[C@@]2(C)[C@@H]1CCC1C(=O)Nc2ccccc21 (some centres not stated)	–	> 100	–	–	–	–
C=C1CC[C@@H]2[C@](C)(CO)[C@H](O)CC[C@@]2(C)[C@@H]1C/C=C1/C(=O)N(C(C)=O)c2ccccc21	–	> 100	–	–	–	–
C=C1CC[C@H]2C(C)(C)CCC[C@]2(C)[C@H]1C/C=C1/C(=O)Nc2c1cccc2C(F)(F)F	1.64	> 100	> 61	–	–	–
C=C1CC[C@H]2C(C)(C)CCC[C@]2(C)[C@H]1C/C=C1/C(=O)Nc2ccc(Br)cc21	7.4	77.2	10	–	–	–
C=C1CC[C@@H]2[C@](C)(CO)[C@H](O)CC[C@@]2(C)[C@@H]1C/C=C1\C(=O)Nc2ccccc21	5.85	> 100	> 17	–	–	–
C=C1CC[C@H]2C(C)(C)CCC[C@]2(C)[C@H]1C/C=C1/C(=O)Nc2ccccc21	2.8	41.6	15	–	–	–
C=C1CC[C@H]2C(C)(C)CCC[C@]2(C)[C@H]1C/C=C1/C(=O)Nc2ccc(Cl)cc21	1.3	36.1	27	–	–	–
C=C1[C@H](O)C[C@H]2C(C)(C)CCC[C@]2(C)[C@H]1C/C=C1\C(=O)Nc2ccccc21	1.41	20	14	–	–	–
C=C1CC[C@H]2C(C)(C)CCC[C@]2(C)[C@H]1C/C=C1\C(=O)Nc2ccc(C(F)(F)F)cc21	2.63	> 16.2	> 6.1	–	–	–
C=C1CC[C@H]2C(C)(C)CCC[C@]2(C)[C@H]1C/C=C1/C(=O)Nc2cc(Cl)ccc21	–	5.7	–	–	–	–
C=C1CC[C@H]2C(C)(C)CCC[C@]2(C)[C@H]1C/C=C1\C(=O)Nc2ccc(F)cc21	6.62	15.7	2.4	–	–	–
C=C1CC[C@H]2C(C)(C)CCC[C@]2(C)[C@H]1C/C=C1\C(=O)Nc2c1cccc2C(F)(F)F	8.77	> 100	> 11	–	–	–
C=C1CC[C@H]2C(C)(C)CCC[C@]2(C)[C@H]1C/C=C1\C(=O)Nc2ccc(Cl)cc21	4.1	18.3	4.5	–	–	–

Compound	EC50 (Chikungunya virus [1]) [µM]	CC50 [2] [µM]	selectivity ratio [3]	Activity (Chikungunya virus [4])	Activity (Chikungunya virus [5])	Activity (Chikungunya virus [6])
C=C1CC[C@H]2C(C)(C)CCC[C@]2(C)[C@H]1C/C=C1/C(=O)Nc2cc(Br)ccc21	–	8.3	–	–	–	–
C=C1CC[C@H]2C(C)(C)CCC[C@]2(C)[C@H]1C/C=C1\C(=O)Nc2cc(C(F)(F)F)ccc21	3.07	52.8	17	–	–	–
C=C1CC[C@H]2C(C)(C)CCC[C@]2(C)[C@H]1C/C=C1\C(=O)NC(=O)c2ccccc21	0.29	> 100	> 347	3.8	–	–
C=C1CC[C@H]2C(C)(C)CCC[C@]2(C)[C@H]1C/C=C1\C(=O)Nc2ccc(Br)cc21	1.8	20.6	11	–	–	–
C=C1CC[C@@H]2[C@](C)(CO)[C@H](O)CC[C@@]2(C)[C@@H]1C/C=C1\SC(=S)NC1=O	–	> 100	–	–	–	–
C=C1CC[C@H]2C(C)(C)CCC[C@]2(C)[C@H]1C/C=C1/C(=O)Nc2cc(F)ccc21	0.46	9	20	–	–	–
C=C1CC[C@@H]2[C@](C)(CO)[C@H](O)CC[C@@]2(C)[C@@H]1C/C=C1\C(=O)N(C(C)=O)c2ccccc21	–	> 100	–	–	–	–
C=C1CC[C@H]2C(C)(C)CCC[C@]2(C)[C@H]1C/C=C1\C(=O)Nc2cc(Cl)ccc21	–	15.6	–	–	–	–
C=C1CC[C@H]2C(C)(C)CCC[C@]2(C)[C@H]1C/C=C1\C(=O)Nc2cccc(Br)c21	0.44	27.1	62	–	–	–
CC1=CC[C@H]2C(C)(C)CCC[C@]2(C)[C@H]1C/C=C1/C(=O)Nc2c(Cl)cccc21	6.56	> 100	1.5	–	–	–
C=C1CC[C@H]2C(C)(C)CCC[C@]2(C)[C@H]1C/C=C1\C(=O)Nc2cc(F)ccc21	0.21	14.2	67	–	–	–
C=C1CC[C@H]2C(C)(C)CCC[C@]2(C)[C@H]1C/C=C1\C(=O)Nc2c(F)cccc21	0.08	26.9	336	–	–	2
C=C1CC[C@H]2C(C)(C)CCC[C@]2(C)[C@H]1C/C=C1\C(=O)Nc2c(Cl)cccc21	10.5	59.7	5.7	–	–	–
CC1=CC[C@H]2C(C)(C)CCC[C@]2(C)[C@H]1C/C=C1/C(=O)Nc2ccccc21	3.22	18.6	5.8	–	–	–
C=C1CC[C@H]2C(C)(C)CCC[C@]2(C)[C@H]1C/C=C1/C(=O)NC(=O)c2ccccc21	3.46	50.5	15	–	–	–
C=C1CC[C@H]2C(C)(C)CCC[C@]2(C)[C@H]1C/C=C1\C(=O)Nc2cccc(C)c21	0.72	49.9	69	–	–	–
C=C1CC[C@@H]2[C@](C)(CO)[C@H](O)CC[C@@]2(C)[C@@H]1C/C=C1/C(=O)N(C)c2ccccc21	–	> 100	–	–	–	–
CC1=CC[C@H]2C(C)(C)CCC[C@]2(C)[C@H]1C/C=C1\C(=O)Nc2c(Cl)cccc21	9.35	194	21	–	–	–
C=C1CC[C@@H]2[C@](C)(COC(C)=O)[C@H](OC(C)=O)CC[C@@]2(C)[C@@H]1C/C=C1/C(=O)Nc2ccccc21	7.4	> 100	> 14	–	–	–
C=C1[C@H](O)C[C@H]2C(C)(C)CCC[C@]2(C)[C@H]1C/C=C1\C(=O)Nc2c(Cl)cccc21	0.002	13.4	6700	–	–	2.1
C=C1CC[C@H]2C(C)(C)CCC[C@]2(C)[C@H]1C/C=C1/C(=O)Nc2ccc(C(F)(F)F)cc21	–	6.66	–	–	–	–
C=C1CC[C@H]2C(C)(C)CCC[C@]2(C)[C@H]1C/C=C1\C(=O)Nc2c(Br)cccc21	1.12	> 100	> 90	2.3	–	–
C=C1CC[C@H]2C(C)(C)CCC[C@]2(C)[C@H]1C/C=C1\C(=O)Nc2cc(C)ccc21	11.6	37.2	3.2	–	–	–
C=C1CC[C@H]2C(C)(C)CCC[C@]2(C)[C@H]1C/C=C1\C(=O)Nc2c(OC)cccc21	0.03	23.4	780	–	–	1.5
C=C1CC[C@H]2C(C)(C)CCC[C@]2(C)[C@H]1C/C=C1/C(=O)Nc2ccc(C)cc21	0.02	15.2	758	–	–	3.7
C=C1CC[C@H]2C(C)(C)CCC[C@]2(C)[C@H]1C/C=C1/C(=O)Nc2c(Cl)cc(F)cc21	0.08	134	1680	–	2.7	–

From ChEMBL document CHEMBL5131466, “Discovery and development of labdane-oxindole hybrids as small-molecule inhibitors against chikungunya virus infection” (Eur J Med Chem, 2022)
